Measurements taken from PubChem BioAssay (NCI).
Several values for one entry are separate records, joined by “and”; a condition that tells them apart may be missing. Identical values can stand only once.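 96-well plates; 48 h exposure; 5 concentrations. Endpoints by linear interpolation between flanking doses. Not reached: highest tested concentration assigned. GI50 = concentration required for 50% inhibition of growth. TGI is the concentration that stops growth completely.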

Tests used:
Assay in all cases: NCI anticancer screen, dose series, 48 h
COLO 205 colon = tested on: COLO 205 colon
SK-MEL-5 melanoma = tested on: SK-MEL-5 melanoma
M19-MEL melanoma = tested on: M19-MEL melanoma
UACC-62 melanoma = tested on: UACC-62 melanoma
SF-268 CNS = tested on: SF-268 CNS
MALME-3M melanoma = tested on: MALME-3M melanoma
RPMI-8226 leukemia = tested on: RPMI-8226 leukemia
UO-31 renal = tested on: UO-31 renal
DMS 114 small cell lung = tested on: DMS 114 small cell lung
MOLT-4 leukemia = tested on: MOLT-4 leukemia
SR leukemia = tested on: SR leukemia
A549 NSCLC = tested on: A549 NSCLC
K-562 leukemia = tested on: K-562 leukemia
NCI-H522 lung = tested on: NCI-H522 lung
U251 CNS = tested on: U251 CNS
CCRF-CEM leukemia = tested on: CCRF-CEM leukemia
KM20L2 colon = tested on: KM20L2 colon
NCI-H23 lung = tested on: NCI-H23 lung
SK-MEL-2 melanoma = tested on: SK-MEL-2 melanoma
A498 renal = tested on: A498 renal
LOX IMVI melanoma = tested on: LOX IMVI melanoma
SF-295 CNS = tested on: SF-295 CNS
XF 498 CNS = tested on: XF 498 CNS
TK-10 renal = tested on: TK-10 renal
HCT-15 colon = tested on: HCT-15 colon
SNB-75 CNS = tested on: SNB-75 CNS
OVCAR-3 ovarian = tested on: OVCAR-3 ovarian
DMS 273 small cell lung = tested on: DMS 273 small cell lung
UACC-257 melanoma = tested on: UACC-257 melanoma
HOP-62 NSCLC = tested on: HOP-62 NSCLC
HOP-18 NSCLC = tested on: HOP-18 NSCLC
NCI-H460 lung = tested on: NCI-H460 lung
786-0 renal = tested on: 786-0 renal
CAKI-1 renal = tested on: CAKI-1 renal
SW-620 colon = tested on: SW-620 colon
DLD-1 colon = tested on: DLD-1 colon
HT29 colon = tested on: HT29 colon
SNB-78 CNS = tested on: SNB-78 CNS
IGROV1 ovarian = tested on: IGROV1 ovarian
HOP-92 NSCLC = tested on: HOP-92 NSCLC
SF-539 CNS = tested on: SF-539 CNS
SNB-19 CNS = tested on: SNB-19 CNS
HL-60(TB) leukemia = tested on: HL-60(TB) leukemia
EKVX NSCLC = tested on: EKVX NSCLC
RXF 393 renal = tested on: RXF 393 renal
OVCAR-4 ovarian = tested on: OVCAR-4 ovarian
OVCAR-5 ovarian = tested on: OVCAR-5 ovarian
OVCAR-8 ovarian = tested on: OVCAR-8 ovarian
KM12 colon = tested on: KM12 colon
SK-OV-3 ovarian = tested on: SK-OV-3 ovarian
HCT-116 colon = tested on: HCT-116 colon
NCI-H226 lung = tested on: NCI-H226 lung
ACHN renal = tested on: ACHN renal
SK-MEL-28 melanoma = tested on: SK-MEL-28 melanoma
HCC-2998 colon = tested on: HCC-2998 colon
SN12C renal = tested on: SN12C renal
LXFL 529 NSCLC = tested on: LXFL 529 NSCLC
M14 melanoma = tested on: M14 melanoma

For `O=C1C(c2ccccc2)=C(c2ccccc2)C(c2ccc(Cc3ccc(C4=C(c5ccccc5)C(=O)C(c5ccccc5)=C4c4ccccc4)cc3)cc2)=C1c1ccccc1`, the TGI (COLO 205 colon) was greater than 100000 nM, the TGI (SK-MEL-5 melanoma) was greater than 100000 nM and the TGI (M19-MEL melanoma) was greater than 100000 nM. It also gave a TGI (UACC-62 melanoma) greater than 100000 nM, a TGI (SF-268 CNS) greater than 100000 nM and a TGI (MALME-3M melanoma) greater than 100000 nM. It also gave a TGI (RPMI-8226 leukemia) greater than 100000 nM, a TGI (UO-31 renal) greater than 100000 nM and a TGI (DMS 114 small cell lung) greater than 100000 nM. The TGI (MOLT-4 leukemia) was greater than 100000 nM, the TGI (SR leukemia) was greater than 100000 nM and the TGI (A549 NSCLC) was greater than 100000 nM. For the same compound, the TGI (K-562 leukemia) was greater than 100000 nM, the TGI (NCI-H522 lung) was greater than 100000 nM and the TGI (U251 CNS) was greater than 100000 nM. For the same compound, the TGI (CCRF-CEM leukemia) was greater than 100000 nM, the TGI (KM20L2 colon) was greater than 100000 nM and the TGI (NCI-H23 lung) was greater than 100000 nM. It also gave a TGI (SK-MEL-2 melanoma) greater than 100000 nM, a TGI (A498 renal) greater than 100000 nM and a TGI (LOX IMVI melanoma) greater than 100000 nM. The TGI (SF-295 CNS) was greater than 100000 nM, the TGI (XF 498 CNS) was greater than 100000 nM and the TGI (TK-10 renal) was greater than 100000 nM. It also gave a TGI (HCT-15 colon) greater than 100000 nM, a TGI (SNB-75 CNS) greater than 100000 nM and a TGI (OVCAR-3 ovarian) greater than 100000 nM. The TGI (DMS 273 small cell lung) was greater than 100000 nM, the TGI (UACC-257 melanoma) was greater than 100000 nM and the TGI (HOP-62 NSCLC) was greater than 100000 nM. It also gave a TGI (HOP-18 NSCLC) greater than 100000 nM, a TGI (NCI-H460 lung) greater than 100000 nM and a TGI (786-0 renal) greater than 100000 nM. It also gave a TGI (CAKI-1 renal) greater than 100000 nM, a TGI (SW-620 colon) greater than 100000 nM and a TGI (DLD-1 colon) greater than 100000 nM. For the same compound, the TGI (HT29 colon) was greater than 100000 nM, the TGI (SNB-78 CNS) was greater than 100000 nM and the TGI (IGROV1 ovarian) was greater than 100000 nM. For the same compound, the TGI (HOP-92 NSCLC) was greater than 100000 nM, the TGI (SF-539 CNS) was greater than 100000 nM and the TGI (SNB-19 CNS) was greater than 100000 nM. It also gave a TGI (HL-60(TB) leukemia) greater than 100000 nM, a TGI (EKVX NSCLC) greater than 100000 nM and a TGI (RXF 393 renal) greater than 100000 nM. For the same compound, the TGI (OVCAR-4 ovarian) was greater than 100000 nM, the TGI (OVCAR-5 ovarian) was greater than 100000 nM and the TGI (OVCAR-8 ovarian) was greater than 100000 nM. It also gave a TGI (KM12 colon) greater than 100000 nM, a TGI (SK-OV-3 ovarian) greater than 100000 nM and a TGI (HCT-116 colon) greater than 100000 nM. For the same compound, the TGI (NCI-H226 lung) was greater than 100000 nM.
For `COc1cc(C2c3cc4c(cc3[C@@H](NCCN(C)C)C3COC(=O)[C@H]23)OCO4)cc(OC)c1O` (some centres not stated), the TGI (SK-MEL-5 melanoma) was 1090 nM and 1550 nM, the TGI (M19-MEL melanoma) was 4110 nM and 7180 nM and the GI50 (UACC-62 melanoma) was 31.9 nM and 88 nM. The TGI (UACC-62 melanoma) was 319 nM and 834 nM, the GI50 (SF-268 CNS) was 137 nM and 316 nM and the TGI (SF-268 CNS) was 1490 nM and 4290 nM. The TGI (MALME-3M melanoma) was 1610 nM and 2300 nM, the TGI (RPMI-8226 leukemia) was > 100000 nM and 12000 nM and the TGI (UO-31 renal) was 633 nM and 1320 nM. The GI50 (DMS 114 small cell lung) was 49.1 nM and 347 nM, the TGI (DMS 114 small cell lung) was 533 nM and 2110 nM and the GI50 (SR leukemia) was 14400 nM. The TGI (SR leukemia) was greater than 100000 nM, the TGI (NCI-H522 lung) was 1760 nM and 2200 nM and the TGI (U251 CNS) was 365 nM and 1330 nM. The GI50 (CCRF-CEM leukemia) was 13.6 nM and 27.7 nM, the TGI (CCRF-CEM leukemia) was 417 nM and 352 nM and the GI50 (KM20L2 colon) was 425 nM and 1140 nM. For the same compound, the TGI (KM20L2 colon) was 2160 nM and 3620 nM, the GI50 (NCI-H23 lung) was 103 nM and 228 nM and the TGI (NCI-H23 lung) was 673 nM and 1410 nM. For the same compound, the GI50 (SK-MEL-2 melanoma) was 397 nM and 1220 nM, the TGI (SK-MEL-2 melanoma) was 1450 nM and 3190 nM and the GI50 (LOX IMVI melanoma) was 36.6 nM and 119 nM. The TGI (LOX IMVI melanoma) was 690 nM and 1290 nM, the GI50 (SF-295 CNS) was 65.2 nM and 150 nM and the TGI (SF-295 CNS) was 1050 nM and 1660 nM. The TGI (XF 498 CNS) was 978 nM and 2020 nM, the TGI (TK-10 renal) was 3580 nM and 5200 nM and the GI50 (HCT-15 colon) was 1020 nM. For the same compound, the TGI (HCT-15 colon) was 2630 nM, the TGI (SNB-75 CNS) was 674 nM and the GI50 (ACHN renal) was < 10 nM and 26.9 nM. For the same compound, the TGI (ACHN renal) was 45 nM and 192 nM, the TGI (OVCAR-3 ovarian) was 2810 nM and 3310 nM and the TGI (SK-MEL-28 melanoma) was 2140 nM and 3380 nM. For the same compound, the GI50 (DMS 273 small cell lung) was 13.7 nM and 32.9 nM, the TGI (DMS 273 small cell lung) was 803 nM and 1360 nM and the GI50 (UACC-257 melanoma) was 526 nM and 1620 nM. For the same compound, the TGI (UACC-257 melanoma) was 4140 nM and 6160 nM, the GI50 (HOP-62 NSCLC) was 19.1 nM and 49.1 nM and the TGI (HOP-62 NSCLC) was 191 nM and 372 nM. For the same compound, the GI50 (HCC-2998 colon) was 383 nM and 1210 nM, the TGI (HCC-2998 colon) was 1690 nM and 2640 nM and the GI50 (HOP-18 NSCLC) was 108 nM and 428 nM. The TGI (HOP-18 NSCLC) was 2630 nM and 6980 nM, the TGI (NCI-H460 lung) was 135 nM and 326 nM and the GI50 (786-0 renal) was 35.5 nM and 132 nM. For the same compound, the TGI (786-0 renal) was 457 nM and 1100 nM, the GI50 (SN12C renal) was 25.6 nM and 84 nM and the TGI (SN12C renal) was 406 nM and 982 nM. The GI50 (CAKI-1 renal) was 306 nM and 652 nM, the TGI (CAKI-1 renal) was 3460 nM and 4210 nM and the TGI (LXFL 529 NSCLC) was 6900 nM and 13200 nM. The TGI (SW-620 colon) was 3510 nM and 3710 nM, the TGI (DLD-1 colon) was 4030 nM and 7430 nM and the GI50 (HT29 colon) was 1360 nM. The TGI (HT29 colon) was 5000 nM, the GI50 (SNB-78 CNS) was 1240 nM and 3250 nM and the TGI (SNB-78 CNS) was 68300 nM and 77800 nM. The GI50 (IGROV1 ovarian) was 391 nM and 1060 nM, the TGI (IGROV1 ovarian) was 2390 nM and 3570 nM and the TGI (HOP-92 NSCLC) was 92.8 nM and 335 nM. For the same compound, the TGI (SF-539 CNS) was 207 nM and 974 nM, the TGI (SNB-19 CNS) was 5180 nM and 9620 nM and the TGI (M14 melanoma) was 1610 nM and 2310 nM. The TGI (HL-60(TB) leukemia) was 124 nM and 121 nM, the GI50 (EKVX NSCLC) was 1560 nM and 3290 nM and the TGI (EKVX NSCLC) was 5080 nM and 11000 nM. For the same compound, the GI50 (RXF 393 renal) was 301 nM and 1110 nM, the TGI (RXF 393 renal) was 2080 nM and 4370 nM and the TGI (OVCAR-4 ovarian) was 5190 nM and 13300 nM. The GI50 (OVCAR-8 ovarian) was 265 nM and 1080 nM, the TGI (OVCAR-8 ovarian) was 1720 nM and 2720 nM and the TGI (KM12 colon) was 2220 nM and 2630 nM. The GI50 (SK-OV-3 ovarian) was 39.3 nM and 103 nM, the TGI (SK-OV-3 ovarian) was 565 nM and 649 nM and the GI50 (HCT-116 colon) was 272 nM and 715 nM. The TGI (HCT-116 colon) was 2180 nM and 3790 nM and the TGI (NCI-H226 lung) was 48.1 nM and 152 nM.
